Results reported in US9428519B2, “Acylated derivative of homoharringtonine, preparation method therefor, and application thereof” (HANGZHOU BENSHENG PHARMACEUTICAL CO., LTD., priority 2011, dated 2016).
Converted amounts (≈) assume the structure as drawn.

Key:
[1] = system: RPMI8226 (multiple myeloma); assay: MTT growth inhibition of multiple myeloma cells, 72 h; format: cell-based, human
Experimental: Multiple myeloma and lymphoma cell lines: RPMI8226 (multiple myeloma), purchased from Fuxiang Bio-tech Co. Ltd., Shanghai, China.
(§1) Obtaining 6000 well-growing leukemia cells and inoculating them into wells of a 96-well cell culture plate. The culture medium is the 1640 cell culture medium containing 10% fetal bovine serum. After adding the homoharringtonine derivatives of different concentrations and mixing uniformly, placing the plate in a carbon dioxide cell incubator (5% CO2) at 37° C. and incubated for 72 hours. Then the viable cell concentration is determined by the MTT method. In this experiment, the cell viability in control group (not treated with any compound) is set as 100%. On such basis, the cell viability (%) after treatment and the 50% inhibiting concentration of the compound for the leukemia cell growth at 72 hours (IC50 value of 72 hours) are calculated.

[2] = system: NB4 (acute promyelocytic leukemia, AML); assay: MTT growth inhibition of leukemia cells, 72 h; format: cell-based, human; details: MTT
From the text: (§2) Leukemia cell lines: leukemia cell lines: K562/adr (drug-resistant, chronic myeloid leukemia, CML), NB4 (acute promyelocytic leukemia, AML), Kasumi-1 (acute myeloid leukemia M2 type, AML-M2), Jurkat (acute lymphoblastic leukemia, ALL), all of which are donated by Cancer Research Institute of Zhejiang University, China; and H9 (acute lymphoblastic leukemia, ALL), which is purchased from China Center for Type Culture Collection (CCTCC).
(§3) Reagents: The standard sample of homoharringtonine (HHT) is purchased from Taihua Natural Plant Pharmaceutical Co., Ltd., Shaanxi, China, the homoharringtonine derivatives of the present invention.
as §1

[3] = system: Jurkat (acute lymphoblastic leukemia, ALL); assay: MTT growth inhibition of leukemia cells, 72 h; format: cell-based, human
From the text: as §2, §3, §1

[4] = system: Kasumi-1 (acute myeloid leukemia M2 type, AML-M2); assay: MTT growth inhibition of leukemia cells, 72 h; format: cell-based, human
From the text: as §2, §3, §1

[5] = system: K562/adr (drug-resistant, chronic myeloid leukemia, CML); assay: MTT growth inhibition of leukemia cells, 72 h; format: cell-based, human; details: MTT
From the text: as §2, §3, §1

[6] = system: H9 (acute lymphoblastic leukemia, ALL); assay: MTT growth inhibition of leukemia cells, 72 h; format: cell-based, human; details: MTT
From the text: as §2, §3, §1

[7] = system: Huh7 (human liver cancer cell); assay: MTT growth inhibition of human solid tumor cells, 72 h; format: cell-based
Experimental: (§4) Human solid tumor cell lines: Hep-2 (laryngeal carcinoma), A549 (human lung cancer), CaES-17 (esophageal cancer cell), PC-3 (prostate cancer), CNE (nasopharyngeal carcinoma cell), and SK-OV-3 (ovarian cancer cell), all of which are purchased from China Center For Type Culture Collection; RKO (human colon adenocarcinoma cell), MGC 803 (human gastric cancer cell), MG63 (osteosarcoma) and U87 MG (malignant glioma cell), all of which are purchased from Fuxiang Bio-tech Co. Ltd., Shanghai, China; PANC-1 (pancreatic cancer), Huh7 (human liver cancer cell), Becap37 (human breast cancer cell), and Hela (human cervical cancer cell), all of which are donated by Cancer Research Institute of Zhejiang University, China.
(§5) Obtaining 4000 well-growing human solid tumor cells and inoculating them into wells of a 96-well cell culture plate. The culture medium is DMEM High Glucose cell culture medium containing 10% fetal bovine serum. The plate is placed in a carbon dioxide cell incubator (5% CO2) at 37° C. and incubated for 24 hours. After adding the homoharringtonine derivatives of different concentration and mixing uniformly, the plate is placed in a carbon dioxide cell incubator (5% CO2) at 37° C. and incubated for 72 hours. Then the viable cell concentration is determined by the MTT method and the cell viability (%) after drug treatment is calculated. In this experiment, the cell viability of control group (not treated with any compound) is set as 100%.

[8] = system: U87 MG (malignant glioma cell); assay: as above; format: cell-based
Experimental: as §4, §5

[9] = system: RKO (human colon adenocarcinoma cell); assay: as above; format: cell-based; details: MTT
Experimental: as §4, §5

MG63 (osteosarcoma) = assay: as above; format: cell-based
Experimental: as §4, §5

[10] = system: Hela (human cervical cancer cell); assay: as above; format: cell-based; details: MTT
Experimental: as §4, §5

[11] = system: CaES-17 (esophageal cancer cell); assay: as above; format: cell-based
Experimental: as §4, §5

[12] = system: PANC-1 (pancreatic cancer); assay: as above; format: cell-based
Experimental: as §4, §5

PC-3 (prostate cancer) = assay: as above; format: cell-based; details: MTT
Experimental: as §4, §5

[13] = system: Hep-2 (laryngeal carcinoma); assay: as above; format: cell-based
Experimental: as §4, §5

[14] = system: SK-OV-3 (ovarian cancer cell); assay: as above; format: cell-based
Experimental: as §4, §5

A549 (human lung cancer) = assay: as above; format: cell-based
Experimental: as §4, §5

[15] = system: CNE (nasopharyngeal carcinoma cell); assay: as above; format: cell-based; details: MTT
Experimental: as §4, §5

[16] = system: Becap37 (human breast cancer cell); assay: as above; format: cell-based
Experimental: as §4, §5

[17] = system: MGC 803 (human gastric cancer cell); assay: as above; format: cell-based
Experimental: as §4, §5

COC(=O)C[C@@](CCCC(C)(C)OC(C)=O)(OC(C)=O)C(=O)O[C@@H]1C(OC)=C[C@]23CCCN2CCc2cc4c(cc2[C@H]13)OCO4 [BS-HH-001, 2,6-diacetylhomoharringtonine]
anti-RPMI8226 (multiple myeloma) effectiveness [1]: particularly effective
IC50 ([1]; Homo sapiens, RPMI-8226, MTT): 0.009 µg/mL (≈ 0.0143 µM)
IC90 ([1]; Homo sapiens, RPMI-8226, MTT): 0.12 µg/mL (≈ 0.191 µM)
IC50 ([2]; Homo sapiens): 0.01 µg/mL (≈ 0.0159 µM)
IC90 ([2]; Homo sapiens): 0.022 µg/mL (≈ 0.0349 µM)
IC50 ([3]; Homo sapiens, Jurkat): 0.012 µg/mL (≈ 0.0191 µM)
IC90 ([3]; Homo sapiens, Jurkat): ≥ 16 µg/mL
IC50 ([4]; Homo sapiens, Kasumi 1, MTT): 0.006 µg/mL (≈ 0.00953 µM)
IC90 ([4]; Homo sapiens, Kasumi 1, MTT): 0.021 µg/mL (≈ 0.0333 µM)
IC50 ([5]; Homo sapiens, K562/Adr): 0.062 µg/mL (≈ 0.0985 µM)
IC90 ([5]; Homo sapiens, K562/Adr): 1.18 µg/mL (≈ 1.87 µM)
IC50 ([6]; Homo sapiens): 0.02 µg/mL (≈ 0.0318 µM)
IC90 ([6]; Homo sapiens): 0.05 µg/mL (≈ 0.0794 µM)
IC50 ([7]; Homo sapiens, Huh-7): 0.016 µg/mL (≈ 0.0254 µM)
IC90 ([7]; Homo sapiens, Huh-7): 0.13 µg/mL (≈ 0.206 µM)
IC50 ([8]; Homo sapiens, U-87 MG): 0.018 µg/mL (≈ 0.0286 µM)
IC90 ([8]; Homo sapiens, U-87 MG): 0.11 µg/mL (≈ 0.175 µM)
IC50 ([9]; Homo sapiens): 0.007 µg/mL (≈ 0.0111 µM)
IC90 ([9]; Homo sapiens): 0.02 µg/mL (≈ 0.0318 µM)
IC50 (MG63 (osteosarcoma); Homo sapiens, MG-63, MTT): 0.02 µg/mL (≈ 0.0318 µM)
IC90 (MG63 (osteosarcoma); Homo sapiens, MG-63, MTT): 2.4 µg/mL (≈ 3.81 µM)
IC50 ([10]; Homo sapiens, HeLa): 0.026 µg/mL (≈ 0.0413 µM)
IC90 ([10]; Homo sapiens, HeLa): > 16 µg/mL
IC50 ([11]; Homo sapiens, CaEs17): 0.062 µg/mL (≈ 0.0985 µM)
IC90 ([11]; Homo sapiens, CaEs17): > 16 µg/mL
IC50 ([12]; Homo sapiens, PANC-1, MTT): 0.036 µg/mL (≈ 0.0572 µM)
IC90 ([12]; Homo sapiens, PANC-1, MTT): > 16 µg/mL
IC50 (PC-3 (prostate cancer); Homo sapiens): 0.029 µg/mL (≈ 0.0461 µM)
IC90 (PC-3 (prostate cancer); Homo sapiens): > 16 µg/mL
IC50 ([13]; Homo sapiens, HEp-2): 0.026 µg/mL (≈ 0.0413 µM)
IC90 ([13]; Homo sapiens, HEp-2): > 16 µg/mL
IC50 ([14]; Homo sapiens, SK-OV-3, MTT): 0.12 µg/mL (≈ 0.191 µM)
IC90 ([14]; Homo sapiens, SK-OV-3, MTT): > 16 µg/mL
IC50 (A549 (human lung cancer); Homo sapiens, A549): 0.03 µg/mL (≈ 0.0476 µM)
IC90 (A549 (human lung cancer); Homo sapiens, A549): > 16 µg/mL
IC50 ([15]; Homo sapiens): 0.062 µg/mL (≈ 0.0985 µM)
IC90 ([15]; Homo sapiens): > 16 µg/mL
IC50 ([16]; Homo sapiens): 0.015 µg/mL (≈ 0.0238 µM)
IC90 ([16]; Homo sapiens): 14 µg/mL (≈ 22.2 µM)
IC50 ([17]; Homo sapiens, MGC-803): 0.03 µg/mL (≈ 0.0476 µM)
IC90 ([17]; Homo sapiens, MGC-803): 0.66 µg/mL (≈ 1.05 µM)

COC(=O)C[C@@](CCCC(C)(C)OC(=O)/C=C/c1ccco1)(OC(=O)/C=C/c1ccco1)C(=O)O[C@@H]1C(OC)=C[C@]23CCCN2CCc2cc4c(cc2[C@H]13)OCO4 [BS-HH-0022]
IC50 RPMI8226 ([1]; MTT): 0.12 µg/mL (≈ 0.153 µM)
IC90 RPMI8226 ([1]; MTT): 0.63 µg/mL (≈ 0.802 µM)
IC50 NB4 [2]: 0.08 µg/mL (≈ 0.102 µM)
IC90 NB4 [2]: 0.25 µg/mL (≈ 0.318 µM)
IC50 Jurkat [3]: 0.088 µg/mL (≈ 0.112 µM)
IC90 Jurkat [3]: 10.13 µg/mL (≈ 12.9 µM)
IC50 Kasumi-1 ([4]; MTT): 0.063 µg/mL (≈ 0.0802 µM)
IC90 Kasumi-1 ([4]; MTT): 0.22 µg/mL (≈ 0.28 µM)
IC50 K562/adr [5]: 0.41 µg/mL (≈ 0.522 µM)
IC90 K562/adr [5]: 1.84 µg/mL (≈ 2.34 µM)
IC50 H9 [6]: 0.19 µg/mL (≈ 0.242 µM)
IC90 H9 [6]: 0.4 µg/mL (≈ 0.509 µM)
IC50 Huh7 [7]: 0.13 µg/mL (≈ 0.165 µM)
IC90 Huh7 [7]: 0.99 µg/mL (≈ 1.26 µM)
IC50 U87 MG [8]: 0.16 µg/mL (≈ 0.204 µM)
IC90 U87 MG [8]: 0.59 µg/mL (≈ 0.751 µM)
IC50 RKO [9]: 0.044 µg/mL (≈ 0.056 µM)
IC90 RKO [9]: 0.35 µg/mL (≈ 0.445 µM)
IC50 MG 63 (MG63 (osteosarcoma); MTT): 0.24 µg/mL (≈ 0.305 µM)
IC90 MG 63 (MG63 (osteosarcoma); MTT): 3.25 µg/mL (≈ 4.14 µM)
IC50 Hela [10]: 0.33 µg/mL (≈ 0.42 µM)
IC90 Hela [10]: 9.38 µg/mL (≈ 11.9 µM)
IC50 CaES-17 [11]: 0.61 µg/mL (≈ 0.776 µM)
IC90 CaES-17 [11]: >16 µg/mL
IC50 PANC-1 ([12]; MTT): 0.69 µg/mL (≈ 0.878 µM)
IC90 PANC-1 ([12]; MTT): 15.56 µg/mL (≈ 19.8 µM)
IC50 PC-3 (PC-3 (prostate cancer)): 1.37 µg/mL (≈ 1.74 µM)
IC90 PC-3 (PC-3 (prostate cancer)): >16 µg/mL
IC50 Hep-2 [13]: 0.22 µg/mL (≈ 0.28 µM)
IC90 Hep-2 [13]: >16 µg/mL
IC50 SK-OV-3 ([14]; MTT): 1.33 µg/mL (≈ 1.69 µM)
IC90 SK-OV-3 ([14]; MTT): >16 µg/mL
IC50 A549 (A549 (human lung cancer)): 0.23 µg/mL (≈ 0.293 µM)
IC90 A549 (A549 (human lung cancer)): >16 µg/mL
IC50 CNE [15]: 0.21 µg/mL (≈ 0.267 µM)
IC90 CNE [15]: 16 µg/mL (≈ 20.4 µM)
IC50 Becap37 [16]: 0.23 µg/mL (≈ 0.293 µM)
IC90 Becap37 [16]: 11.14 µg/mL (≈ 14.2 µM)
IC50 MGC 803 [17]: 0.16 µg/mL (≈ 0.204 µM)
IC90 MGC 803 [17]: 0.76 µg/mL (≈ 0.967 µM)
